26 compounds from US20230117034A1, “PYRAZOLOTRIAZINES” (Bayer Aktiengesellschaft, priority 2019, published 2023) can be followed below.

What all share (format): cell-based
Assay [1] deals with T1, CYCLIN K (nuclear staining in CAL-120 cells) (Homo sapiens, UniProt O75909).
T1 construct: endogenous in cells; host or cells: CAL-120 human breast cancer cells (DSMZ ACC 459)
The experiment in a line: CYCLIN K nuclear protein level: immunofluorescence high content analysis (CAL-120). As to conditions: 24 h, 50% reduction of nuclear CCNK staining intensity, median, read-out: CYCLIN K degradation IF, DC50-[mol/l] (median). Put shortly: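 Readout is automated confocal image analysis of nuclear cyclin K immunofluorescence (Hoechst nuclei) after PFA fixation. Cells were CAL-120, exposed to compound dose-response 24 h at 37 °C; values are DC50 for halving nuclear CCNK signal relative to DMSO and control wells.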

Assay [2] concerns CAL-120, human breast adenocarcinoma cells. As to the kind of experiment: Proliferation assay CAL-120 (crystal violet, 4 days). Particulars: Homo sapiens, CAL-120, 96 h, CAL-120 cells, median, read-out: Prolif-CAL-120, IC50-[mol/l] (median). In short, it runs like this:
(§1)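 Crystal violet proliferation read-out after 4 days of compound exposure (0.01-10 µmol/L; solvent 0.1% DMSO). Extinction at 595 nm, set between zero-point (0%) and vehicle (100%), fitted with 4 parameters to give IC50.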

Assay [3] deals with MDA-MB-231, human breast cancer cells. As to the kind of experiment: Proliferation assay MDA-MB-231 (crystal violet, 4 days). Particulars: Homo sapiens, MDA-MB-231, 96 h, MDA-MB-231 cells, median, read-out: Prolif-MDA MB-231, IC50-[mol/l] (median). In short, it runs like this: as §1

T1 sequence (O75909 whole entry): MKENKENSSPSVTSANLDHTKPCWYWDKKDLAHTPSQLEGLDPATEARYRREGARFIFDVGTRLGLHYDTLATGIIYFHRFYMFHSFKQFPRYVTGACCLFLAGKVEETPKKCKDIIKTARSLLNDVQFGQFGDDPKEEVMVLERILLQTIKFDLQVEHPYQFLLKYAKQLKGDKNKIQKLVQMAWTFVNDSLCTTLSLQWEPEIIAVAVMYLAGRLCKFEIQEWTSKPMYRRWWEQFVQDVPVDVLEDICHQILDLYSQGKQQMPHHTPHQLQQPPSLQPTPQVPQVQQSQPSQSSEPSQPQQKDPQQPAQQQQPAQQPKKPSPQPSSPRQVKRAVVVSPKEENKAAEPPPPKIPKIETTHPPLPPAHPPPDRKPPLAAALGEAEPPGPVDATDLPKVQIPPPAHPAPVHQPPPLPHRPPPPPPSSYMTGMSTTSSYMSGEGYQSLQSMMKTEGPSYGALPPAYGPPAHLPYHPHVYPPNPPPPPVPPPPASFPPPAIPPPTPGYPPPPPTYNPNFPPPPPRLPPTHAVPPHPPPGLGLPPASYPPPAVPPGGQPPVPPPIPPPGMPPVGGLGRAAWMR
T1 sequence (Q9NYV4 whole entry partner): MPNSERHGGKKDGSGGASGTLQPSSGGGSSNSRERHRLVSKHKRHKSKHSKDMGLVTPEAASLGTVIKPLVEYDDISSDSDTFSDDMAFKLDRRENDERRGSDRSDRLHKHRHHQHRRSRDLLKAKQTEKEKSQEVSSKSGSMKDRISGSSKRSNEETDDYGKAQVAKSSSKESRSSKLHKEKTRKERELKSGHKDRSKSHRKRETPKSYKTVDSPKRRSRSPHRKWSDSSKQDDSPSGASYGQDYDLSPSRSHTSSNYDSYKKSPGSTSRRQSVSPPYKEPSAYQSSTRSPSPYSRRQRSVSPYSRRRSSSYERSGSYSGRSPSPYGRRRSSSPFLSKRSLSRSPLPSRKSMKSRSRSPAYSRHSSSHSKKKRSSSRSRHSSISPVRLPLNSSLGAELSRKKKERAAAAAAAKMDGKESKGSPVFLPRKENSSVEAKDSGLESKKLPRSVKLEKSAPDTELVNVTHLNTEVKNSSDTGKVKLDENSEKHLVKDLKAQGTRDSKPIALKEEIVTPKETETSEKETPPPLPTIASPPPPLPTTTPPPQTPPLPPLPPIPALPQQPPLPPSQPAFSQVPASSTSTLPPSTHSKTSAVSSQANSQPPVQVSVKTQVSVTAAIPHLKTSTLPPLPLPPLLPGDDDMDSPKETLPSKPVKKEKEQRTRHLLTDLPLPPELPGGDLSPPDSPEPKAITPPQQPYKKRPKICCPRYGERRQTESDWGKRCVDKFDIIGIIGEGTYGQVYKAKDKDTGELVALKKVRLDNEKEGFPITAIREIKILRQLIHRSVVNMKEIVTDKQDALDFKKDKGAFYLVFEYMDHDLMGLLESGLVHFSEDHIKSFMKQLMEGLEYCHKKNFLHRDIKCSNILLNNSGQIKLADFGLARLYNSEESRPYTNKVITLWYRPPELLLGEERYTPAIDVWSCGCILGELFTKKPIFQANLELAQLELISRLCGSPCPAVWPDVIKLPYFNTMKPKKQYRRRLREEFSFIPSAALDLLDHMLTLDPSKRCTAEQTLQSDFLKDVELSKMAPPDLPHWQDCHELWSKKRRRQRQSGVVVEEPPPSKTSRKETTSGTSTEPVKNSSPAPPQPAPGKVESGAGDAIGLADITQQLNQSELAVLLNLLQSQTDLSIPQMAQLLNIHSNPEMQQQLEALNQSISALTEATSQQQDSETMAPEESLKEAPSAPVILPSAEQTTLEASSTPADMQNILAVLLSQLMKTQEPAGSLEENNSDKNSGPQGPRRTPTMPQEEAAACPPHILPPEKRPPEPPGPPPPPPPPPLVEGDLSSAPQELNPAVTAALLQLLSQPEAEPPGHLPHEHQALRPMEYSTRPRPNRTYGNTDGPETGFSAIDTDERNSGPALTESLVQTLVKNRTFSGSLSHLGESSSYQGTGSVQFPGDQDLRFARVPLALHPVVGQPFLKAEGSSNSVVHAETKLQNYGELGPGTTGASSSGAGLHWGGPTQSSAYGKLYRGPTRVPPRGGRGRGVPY

For `Fc1cccc(-c2cnc(CNc3nc(N4CCOCC4)nc4c(Br)cnn34)[nH]2)c1` [Example 79, 8-bromo-N-{[5-(3-fluorophenyl)-1H-imidazol-2-yl]methyl}-2-(morpholin-4-yl)pyrazolo[1,5-a][1,3,5]triazin-4-amine], the DC50 in assay [1] stood at 0.469 nM. Besides, in assay [2], the IC50 worked out at 4.67 nM.

On to `Fc1cccc(-c2cnn3c(NCc4nc5ccccc5[nH]4)nc(N4CCOCC4)nc23)c1` [Example 91, N-[(1H-benzimidazol-2-yl)methyl]-8-(3-fluorophenyl)-2-(morpholin-4-yl)pyrazolo[1,5-a][1,3,5]triazin-4-amine], for which, in assay [1], the DC50 was 19.6 nM. The IC50 in assay [2] came to 105 nM.

Take `OCC1COCCN1c1nc(NCc2nc3ccccc3[nH]2)n2ncc(Br)c2n1` (stereo not drawn) [Example 67, (4-{4-[(1H-benzimidazol-2-ylmethyl)amino]-8-bromopyrazolo[1,5-a][1,3,5]triazin-2-yl}morpholin-3-yl)methanol]: the DC50 in assay [1] was 0.814 nM. Moreover, the IC50 in assay [2] was 20.8 nM.

For the compound `FC(F)(F)c1ccccc1-c1cnc(CNc2nc(N3CCOCC3)nc3c(Br)cnn23)[nH]1` [Example 88, 8-bromo-2-(morpholin-4-yl)-N-({5-[2-(trifluoromethyl)phenyl]-1H-imidazol-2-yl}methyl)pyrazolo[1,5-a][1,3,5]triazin-4-amine], in assay [1], the DC50 turned out to be 1.16 nM. The IC50 in assay [2] was determined as 14.2 nM.

For the compound `Fc1ccc2[nH]c(CNc3nc(N4CCOCC4)nc4c(-c5cnn(C(F)F)c5)cnn34)nc2c1F` [Example 422, N-[(4,5-difluoro-1H-benzimidazol-2-yl)methyl]-8-[1-(difluoromethyl)-1H-pyrazol-4-yl]-2-(morpholin-4-yl)pyrazolo[1,5-a][1,3,5]triazin-4-amine], the figures for the IC50 in assay [3] and in assay [2] were 20.1 nM and 6.88 nM, respectively.

Regarding `OC[C@H]1CCCCN1c1nc(NCc2nnc(-c3ccccc3)[nH]2)n2ncc(Br)c2n1` [Example 71, [(2R)-1-(8-bromo-4-{[(5-phenyl-4H-1,2,4-triazol-3-yl)methyl]amino}pyrazolo[1,5-a][1,3,5]triazin-2-yl)piperidin-2-yl]methanol], the DC50 in assay [1] amounted to 2.77 nM. Moreover, in assay [2], the IC50 is 32 nM.

Turning to `c1ccc2[nH]c(CNc3nc(N4CCOCC4)nc4c(C5CC5)cnn34)nc2c1` [Example 92, N-[(1H-benzimidazol-2-yl)methyl]-8-cyclopropyl-2-(morpholin-4-yl)pyrazolo[1,5-a][1,3,5]triazin-4-amine], the DC50 in assay [1] worked out at 0.381 nM. Also, the IC50 in assay [2] was determined as 12 nM.

With `Fc1ccccc1-c1cnc(CNc2nc(N3CCOCC3)nc3c(Br)cnn23)[nH]1` [Example 86, 8-bromo-N-{[5-(2-fluorophenyl)-1H-imidazol-2-yl]methyl}-2-(morpholin-4-yl)pyrazolo[1,5-a][1,3,5]triazin-4-amine], the DC50 in assay [1] was determined as 0.576 nM. The IC50 in assay [2] came to 14.4 nM.

`CC(C)c1cnn2c(NCc3nc4ccccc4[nH]3)nc(N3CCN(C)CC3)nc12` [Example 2, N-[(1H-benzimidazol-2-yl)methyl]-2-(4-methylpiperazin-1-yl)-8-(propan-2-yl)pyrazolo[1,5-a][1,3,5]triazin-4-amine]: the DC50 in assay [1] worked out at 5.04 nM. Moreover, in assay [2], the IC50 was 31.2 nM.

Regarding `CC(C)c1cnn2c(NCc3nc4ccccc4[nH]3)nc(N3CCOC(C)(C)C3)nc12` [Example 12, N-[(1H-benzimidazol-2-yl)methyl]-2-(2,2-dimethylmorpholin-4-yl)-8-(propan-2-yl)pyrazolo[1,5-a][1,3,5]triazin-4-amine], in assay [3], the IC50 was found to be 373 nM.

For the compound `Brc1cnn2c(NCc3ncc(-c4ccccn4)[nH]3)nc(N3CCOCC3)nc12` [Example 90, 8-bromo-2-(morpholin-4-yl)-N-{[5-(pyridin-2-yl)-1H-imidazol-2-yl]methyl}pyrazolo[1,5-a][1,3,5]triazin-4-amine], in assay [1], the DC50 was 0.357 nM. Further, the IC50 in assay [2] was 17.4 nM.

For `O[C@@H]1CCN(c2nc(NCc3nc4ccccc4[nH]3)n3ncc(Br)c3n2)C1` [Example 202, (3R)-1-(4-{[(1H-benzimidazol-2-yl)methyl]amino}-8-bromopyrazolo[1,5-a][1,3,5]triazin-2-yl)pyrrolidin-3-ol], the figures for the IC50 in assay [3] and in assay [2] were 295 nM and 131 nM, respectively.

For the compound `OC[C@@H]1CCCCN1c1nc(NCc2nnc(-c3ccccc3)[nH]2)n2ncc(Br)c2n1` [Example 70, [(2S)-1-(8-bromo-4-{[(5-phenyl-4H-1,2,4-triazol-3-yl)methyl]amino}pyrazolo[1,5-a][1,3,5]triazin-2-yl)piperidin-2-yl]methanol], the DC50 in assay [1] was found to be 11.7 nM. Further, the IC50 in assay [2] amounted to 49 nM.

For the compound `COc1ccccc1-c1cnc(CNc2nc(N3CCOCC3)nc3c(Br)cnn23)[nH]1` [Example 87, 8-bromo-N-{[5-(2-methoxyphenyl)-1H-imidazol-2-yl]methyl}-2-(morpholin-4-yl)pyrazolo[1,5-a][1,3,5]triazin-4-amine], in assay [1], the DC50 amounted to 0.667 nM. For the same compound, the IC50 in assay [2] stood at 6.58 nM.

In the case of `FC(F)(F)Oc1ccccc1-c1nnc(CNc2nc(N3CCOCC3)nc3c(Br)cnn23)[nH]1` [Example 74, 8-bromo-2-(morpholin-4-yl)-N-({5-[2-(trifluoromethoxy)phenyl]-4H-1,2,4-triazol-3-yl}methyl)pyrazolo[1,5-a][1,3,5]triazin-4-amine], the IC50 in assay [2] came out at 311 nM.

Consider `COC1CCN(c2nc(NCc3nnc(-c4ccccc4)[nH]3)n3ncc(Br)c3n2)CC1` [Example 76, 8-bromo-2-(4-methoxypiperidin-1-yl)-N-[(5-phenyl-4H-1,2,4-triazol-3-yl)methyl]pyrazolo[1,5-a][1,3,5]triazin-4-amine], for which the DC50 in assay [1] turned out to be 8.06 nM. Also, the IC50 in assay [2] came out at 110 nM.

In the case of `Clc1cccc(-c2cnc(CNc3nc(N4CCOCC4)nc4c(Br)cnn34)[nH]2)c1` [Example 81, 8-bromo-N-{[5-(3-chlorophenyl)-1H-imidazol-2-yl]methyl}-2-(morpholin-4-yl)pyrazolo[1,5-a][1,3,5]triazin-4-amine], the DC50 in assay [1] is 3.87 nM. For the same compound, the IC50 in assay [2] came to 4.14 nM.

Turning to `Brc1cnn2c(NCc3nnc(-c4ccccc4)[nH]3)nc(N3CC4(COC4)C3)nc12` [Example 65, 8-bromo-2-(2-oxa-6-azaspiro[3.3]heptan-6-yl)-N-[(5-phenyl-4H-1,2,4-triazol-3-yl)methyl]pyrazolo[1,5-a][1,3,5]triazin-4-amine], the DC50 in assay [1] was 16.4 nM. The IC50 in assay [2] amounted to 10 nM.

With `FC(F)(F)Oc1ccccc1-c1cnc(CNc2nc(N3CCOCC3)nc3c(Br)cnn23)[nH]1` [Example 89, 8-bromo-2-(morpholin-4-yl)-N-({5-[2-(trifluoromethoxy)phenyl]-1H-imidazol-2-yl}methyl)pyrazolo[1,5-a][1,3,5]triazin-4-amine], in assay [1], the DC50 came out at 1.43 nM. Besides, the IC50 in assay [2] was 32.9 nM.

`Fc1ccccc1-c1nnc(CNc2nc(N3CCOCC3)nc3c(Br)cnn23)[nH]1` [Example 75, 8-bromo-N-{[5-(2-fluorophenyl)-4H-1,2,4-triazol-3-yl]methyl}-2-(morpholin-4-yl)pyrazolo[1,5-a][1,3,5]triazin-4-amine]: in assay [1], the DC50 was found to be 8.7 nM. In addition, the IC50 in assay [2] amounted to 53.2 nM.

As to `FC(F)(F)Oc1cccc(-c2cnc(CNc3nc(N4CCOCC4)nc4c(Br)cnn34)[nH]2)c1` [Example 82, 8-bromo-2-(morpholin-4-yl)-N-({5-[3-(trifluoromethoxy)phenyl]-1H-imidazol-2-yl}methyl)pyrazolo[1,5-a][1,3,5]triazin-4-amine], the DC50 in assay [1] amounted to 14.2 nM. Also, the IC50 in assay [2] is 85.2 nM.

Consider `Clc1ccccc1-c1nnc(CNc2nc(N3CCOCC3)nc3c(Br)cnn23)[nH]1` [Example 69, 8-bromo-N-{[5-(2-chlorophenyl)-4H-1,2,4-triazol-3-yl]methyl}-2-(morpholin-4-yl)pyrazolo[1,5-a][1,3,5]triazin-4-amine], for which the IC50 in assay [2] is 333 nM.

Regarding `Cc1ccccc1-c1cnc(CNc2nc(N3CCOCC3)nc3c(Br)cnn23)[nH]1` [Example 85, 8-bromo-N-{[5-(2-methylphenyl)-1H-imidazol-2-yl]methyl}-2-(morpholin-4-yl)pyrazolo[1,5-a][1,3,5]triazin-4-amine], the DC50 in assay [1] is 1.2 nM. The IC50 in assay [2] is 26.3 nM.

`FC(F)(F)c1cccc(-c2cnc(CNc3nc(N4CCOCC4)nc4c(Br)cnn34)[nH]2)c1` [Example 83, 8-bromo-2-(morpholin-4-yl)-N-({5-[3-(trifluoromethyl)phenyl]-1H-imidazol-2-yl}methyl)pyrazolo[1,5-a][1,3,5]triazin-4-amine]: in assay [1], the DC50 is 1.78 nM. Further, the IC50 in assay [2] came to 12.1 nM.

Take `COC(=O)C1CCN(c2nc(NCc3nnc(-c4ccccc4)[nH]3)n3ncc(Br)c3n2)CC1` [Example 77, methyl 1-(8-bromo-4-{[(5-phenyl-4H-1,2,4-triazol-3-yl)methyl]amino}pyrazolo[1,5-a][1,3,5]triazin-2-yl)piperidine-4-carboxylate]: the IC50 in assay [2] was 338 nM.

Regarding `C[C@@H]1CN(c2nc(NCc3nc4ccccc4[nH]3)n3ncc(Br)c3n2)C[C@H](C)O1` [Example 73, N-[(1H-benzimidazol-2-yl)methyl]-8-bromo-2-[(2R,6S)-2,6-dimethylmorpholin-4-yl]pyrazolo[1,5-a][1,3,5]triazin-4-amine], in assay [1], the DC50 came out at 0.735 nM. Besides, the IC50 in assay [2] worked out at 23 nM.
